Source: ChEMBL document CHEMBL3351680, “Structure-based design, synthesis and biological evaluation of novel β-secretase inhibitors containing a pyrazole or thiazole moiety as the P3 ligand” (Bioorg Med Chem Lett, 2015)
pKi: −log10 of the molar value.

What follows are compounds tested against T1, Beta-secretase 2 (Homo sapiens, UniProt Q9Y5Z0) (assay: Inhibition of memapsin 1 (unknown origin)).
T1 sequence (Q9Y5Z0 whole entry): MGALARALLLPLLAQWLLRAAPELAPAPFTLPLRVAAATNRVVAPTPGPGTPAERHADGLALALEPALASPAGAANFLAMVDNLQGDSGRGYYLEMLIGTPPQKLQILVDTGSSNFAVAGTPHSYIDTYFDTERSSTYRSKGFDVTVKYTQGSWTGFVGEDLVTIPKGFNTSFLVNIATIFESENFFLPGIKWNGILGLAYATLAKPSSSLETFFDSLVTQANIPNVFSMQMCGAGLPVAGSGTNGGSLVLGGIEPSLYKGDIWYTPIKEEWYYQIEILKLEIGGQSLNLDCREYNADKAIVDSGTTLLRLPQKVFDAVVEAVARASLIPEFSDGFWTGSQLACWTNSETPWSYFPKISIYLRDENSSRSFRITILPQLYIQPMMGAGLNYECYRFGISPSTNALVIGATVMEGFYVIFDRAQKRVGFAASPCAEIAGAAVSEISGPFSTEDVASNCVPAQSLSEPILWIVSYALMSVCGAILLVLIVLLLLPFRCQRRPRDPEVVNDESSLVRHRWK

| SMILES | pKi |
| --- | --- |
| Cc1csc(C[C@H](C)C(=O)N[C@@H](CNC(=O)OC(C)(C)C)C(=O)N[C@@H](CC(C)C)[C@@H](O)C[C@@H](C)C(=O)N[C@H](C(=O)NCC(C)C)C(C)C)n1 | 7.15 |

The compounds below were run against Cathepsin D (Homo sapiens, UniProt P07339) (assay: Inhibition of Cathepsin D (unknown origin)).
Cathepsin D, sequence (P07339 65-162 limits assumed): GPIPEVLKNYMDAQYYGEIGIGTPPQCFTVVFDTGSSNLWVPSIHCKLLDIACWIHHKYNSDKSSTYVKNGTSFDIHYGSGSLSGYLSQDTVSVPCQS
Cathepsin D, sequence (P07339 169-412 limits assumed): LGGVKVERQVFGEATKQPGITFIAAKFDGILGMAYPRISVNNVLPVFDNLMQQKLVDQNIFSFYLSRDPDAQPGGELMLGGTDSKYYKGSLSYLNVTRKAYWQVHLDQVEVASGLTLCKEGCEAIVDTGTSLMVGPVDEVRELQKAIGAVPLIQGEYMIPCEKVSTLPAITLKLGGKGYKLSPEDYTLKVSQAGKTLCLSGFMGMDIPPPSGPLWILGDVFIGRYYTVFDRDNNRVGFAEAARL

| SMILES | pKi |
| --- | --- |
| Cc1csc(C[C@H](C)C(=O)N[C@@H](CNC(=O)OC(C)(C)C)C(=O)N[C@@H](CC(C)C)[C@@H](O)C[C@@H](C)C(=O)N[C@H](C(=O)NCC(C)C)C(C)C)n1 | 8.90 |

The compounds below were run against Beta-secretase 1 (Homo sapiens, UniProt P56817) (assay: Inhibition of recombinant BACE1 (unknown origin)).
Beta-secretase 1, sequence (P56817 whole entry): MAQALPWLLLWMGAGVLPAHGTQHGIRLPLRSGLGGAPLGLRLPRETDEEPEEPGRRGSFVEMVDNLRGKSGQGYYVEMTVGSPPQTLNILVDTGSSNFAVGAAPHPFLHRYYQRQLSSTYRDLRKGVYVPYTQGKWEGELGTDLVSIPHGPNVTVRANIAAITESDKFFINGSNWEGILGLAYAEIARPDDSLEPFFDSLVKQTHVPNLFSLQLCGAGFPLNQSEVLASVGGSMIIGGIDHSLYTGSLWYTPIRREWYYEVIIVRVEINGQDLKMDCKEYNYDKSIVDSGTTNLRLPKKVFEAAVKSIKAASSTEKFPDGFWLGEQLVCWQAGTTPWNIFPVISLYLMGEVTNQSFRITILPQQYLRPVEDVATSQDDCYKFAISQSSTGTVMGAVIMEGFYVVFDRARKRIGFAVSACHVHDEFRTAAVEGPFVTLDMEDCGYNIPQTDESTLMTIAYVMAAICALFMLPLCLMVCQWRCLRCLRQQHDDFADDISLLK

| SMILES | pKi |
| --- | --- |
| CC[C@@H](Cc1nc(C)cs1)C(=O)N[C@@H](CNC(=O)OC(C)(C)C)C(=O)N[C@@H](CC(C)C)[C@@H](O)C[C@@H](C)C(=O)N[C@H](C(=O)NCC(C)C)C(C)C | 7.97 |
| Cc1ccn(C[C@H](C)C(=O)N[C@@H](CNC(=O)OC(C)(C)C)C(=O)N[C@@H](CC(C)C)[C@@H](O)C[C@@H](C)C(=O)N[C@H](C(=O)NCC(C)C)C(C)C)n1 | 6.70 |
| Cc1cc(C)n(C[C@@H](C(=O)N[C@@H](CNC(=O)OC(C)(C)C)C(=O)N[C@@H](CC(C)C)[C@@H](O)C[C@@H](C)C(=O)N[C@H](C(=O)NCC(C)C)C(C)C)C(C)C)n1 | 6.33 |
| Cc1csc(C[C@H](C)C(=O)N[C@@H](CNC(=O)OC(C)(C)C)C(=O)N[C@@H](CC(C)C)[C@@H](O)C[C@@H](C)C(=O)N[C@H](C(=O)NCC(C)C)C(C)C)n1 | 9.60 |
| Cc1csc(C[C@@H](C(=O)N[C@@H](CNC(=O)OC(C)(C)C)C(=O)N[C@@H](CC(C)C)[C@@H](O)C[C@@H](C)C(=O)N[C@H](C(=O)NCC(C)C)C(C)C)C(C)C)n1 | 7.54 |
| Cc1cc(C)n(C[C@H](C)C(=O)N[C@@H](CS(C)(=O)=O)C(=O)N[C@@H](CC(C)C)[C@@H](O)C[C@@H](C)C(=O)N[C@H](C(=O)NCC(C)C)C(C)C)n1 | 6.72 |

Second part, the compound after the results:

| pKi | SMILES |
| --- | --- |
| 7.20 | CC[C@@H](Cn1nc(C)cc1C)C(=O)N[C@@H](CNC(=O)OC(C)(C)C)C(=O)N[C@@H](CC(C)C)[C@@H](O)C[C@@H](C)C(=O)N[C@H](C(=O)NCC(C)C)C(C)C |
| 7.50 | Cc1nc(C[C@H](C)C(=O)N[C@@H](CNC(=O)OC(C)(C)C)C(=O)N[C@@H](CC(C)C)[C@@H](O)C[C@@H](C)C(=O)N[C@H](C(=O)NCC(C)C)C(C)C)cs1 |
| 7.77 | CC[C@@H](Cc1csc(C)n1)C(=O)N[C@@H](CNC(=O)OC(C)(C)C)C(=O)N[C@@H](CC(C)C)[C@@H](O)C[C@@H](C)C(=O)N[C@H](C(=O)NCC(C)C)C(C)C |
| 7.19 | CSC[C@H](NC(=O)[C@@H](C)Cn1nc(C)cc1C)C(=O)N[C@@H](CC(C)C)[C@@H](O)C[C@@H](C)C(=O)N[C@H](C(=O)NCC(C)C)C(C)C |
| 6.83 | Cc1cc(C)n(C[C@H](CC(C)C)C(=O)N[C@@H](CNC(=O)OC(C)(C)C)C(=O)N[C@@H](CC(C)C)[C@@H](O)C[C@@H](C)C(=O)N[C@H](C(=O)NCC(C)C)C(C)C)n1 |
